Laboratory results published in PubChem BioAssay AID1963984 (Molecular Pharmacology Branch, DTP, NCI, 2024).

Test system: 233499-124-R-J3-PDC spheroids with HUVEC/MSC, viability
Assay: Anticancer human tumor 233499-124-R-J3-PDC patient-derived colon adenocarcinoma cell line growth inhibition [PI3K]
Settings: for IC50: curve of first compound; for viability, T/C: stronger effect = lower value
How it was run: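 Viability of mixed-cell spheroids was determined after exposure to pairwise combinations, one partner being inavolisib, alpelisib, duvelisib or copanlisib. Highest tested concentration matched clinical Cmax where known and 10 microM where not, descending in half-log steps.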

[1] = second compound 0.00316 µM, first compound 0.000316 µM
[2] = second compound 0.00316 µM, first compound 0.001 µM
[3] = second compound 0.00316 µM, first compound 0.00316 µM
[4] = second compound 0.00316 µM, first compound 0.01 µM
[5] = second compound 0.00316 µM, first compound 0.0316 µM
[6] = second compound 0.00316 µM, first compound 0.1 µM
[7] = second compound 0.01 µM, first compound 0.000316 µM
[8] = second compound 0.01 µM, first compound 0.001 µM
[9] = second compound 0.01 µM, first compound 0.00316 µM
[10] = second compound 0.01 µM, first compound 0.01 µM
[11] = second compound 0.01 µM, first compound 0.0316 µM
[12] = second compound 0.01 µM, first compound 0.1 µM
[13] = second compound 0.0316 µM, first compound 0.000316 µM
[14] = second compound 0.0316 µM, first compound 0.001 µM
[15] = second compound 0.0316 µM, first compound 0.00316 µM
[16] = second compound 0.0316 µM, first compound 0.01 µM
[17] = second compound 0.0316 µM, first compound 0.0316 µM
[18] = second compound 0.0316 µM, first compound 0.1 µM
[19] = second compound 0.1 µM, first compound 0.000316 µM
[20] = second compound 0.1 µM, first compound 0.001 µM
[21] = second compound 0.1 µM, first compound 0.00316 µM
[22] = second compound 0.1 µM, first compound 0.01 µM
[23] = second compound 0.1 µM, first compound 0.0316 µM
[24] = second compound 0.1 µM, first compound 0.1 µM
[25] = second compound 0.316 µM, first compound 0.000316 µM
[26] = second compound 0.316 µM, first compound 0.001 µM
[27] = second compound 0.316 µM, first compound 0.00316 µM
[28] = second compound 0.316 µM, first compound 0.01 µM
[29] = second compound 0.316 µM, first compound 0.0316 µM
[30] = second compound 0.316 µM, first compound 0.1 µM
[31] = second compound 1 µM, first compound 0.000316 µM
[32] = second compound 1 µM, first compound 0.001 µM
[33] = second compound 1 µM, first compound 0.00316 µM
[34] = second compound 1 µM, first compound 0.01 µM
[35] = second compound 1 µM, first compound 0.0316 µM
[36] = second compound 1 µM, first compound 0.1 µM
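Further: spheroids exposed to agents for seven days before readout.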
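Wherever viability, T/C is given: percent viability relative to DMSO vehicle control taken as 100%.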

Work on `CC(=O)c1c(C)c2cnc(Nc3ccc(N4CCNCC4)cn3)nc2n(C2CCCC2)c1=O` + COc1c(OCCCN2CCOCC2)ccc2c3n(c(=NC(=O)c4cnc(N)nc4)nc12)CCN3 yielded an IC50 (second compound 0.00316 µM) of over 100 nM, an IC50 (second compound 0.01 µM) of over 100 nM and an IC50 (second compound 0.0316 µM) of over 100 nM. For the same compound, the IC50 (second compound 0.1 µM) was over 100 nM, the IC50 (second compound 0.316 µM) was under 0.316 nM and the IC50 (second compound 1 µM) was under 0.316 nM. For the same compound, the viability, T/C [1] was 106%, the viability, T/C [2] was 106% and the viability, T/C [3] was 121%. The viability, T/C [4] was 106%, the viability, T/C [5] was 76.5% and the viability, T/C [6] was 61%. For the same compound, the viability, T/C [7] was 86.5%, the viability, T/C [8] was 119% and the viability, T/C [9] was 89.2%. For the same compound, the viability, T/C [10] was 89.3%, the viability, T/C [11] was 83% and the viability, T/C [12] was 75.7%. It also gave a viability, T/C [13] of 90%, a viability, T/C [14] of 95.8% and a viability, T/C [15] of 94.4%. For the same compound, the viability, T/C [16] was 86.8%, the viability, T/C [17] was 86.2% and the viability, T/C [18] was 86%. It also gave a viability, T/C [19] of 56.3%, a viability, T/C [20] of 78.8% and a viability, T/C [21] of 63.7%. The viability, T/C [22] was 73.2%, the viability, T/C [23] was 61.6% and the viability, T/C [24] was 62.4%. For the same compound, the viability, T/C [25] was 28.7%, the viability, T/C [26] was 32.3% and the viability, T/C [27] was 30.3%. It also gave a viability, T/C [28] of 31.8%, a viability, T/C [29] of 27.5% and a viability, T/C [30] of 31.2%. It also gave a viability, T/C [31] of 13.7%, a viability, T/C [32] of 4.51% and a viability, T/C [33] of 5.25%. It also gave a viability, T/C [34] of 12.8%, a viability, T/C [35] of 10.7% and a viability, T/C [36] of 10.2%.

`CC(C)n1nc(-c2ccc3oc(N)nc3c2)c2c(N)ncnc21` + COc1c(OCCCN2CCOCC2)ccc2c3n(c(=NC(=O)c4cnc(N)nc4)nc12)CCN3 gave an IC50 (second compound 0.00316 µM) of over 100 nM, an IC50 (second compound 0.01 µM) of over 100 nM and an IC50 (second compound 0.0316 µM) of 54.9 nM. For the same compound, the IC50 (second compound 0.1 µM) was 5.17 nM, the IC50 (second compound 0.316 µM) was under 0.316 nM and the IC50 (second compound 1 µM) was under 0.316 nM. The viability, T/C [1] was 98.3%, the viability, T/C [2] was 90.8% and the viability, T/C [3] was 74.6%. For the same compound, the viability, T/C [4] was 80.3%, the viability, T/C [5] was 83% and the viability, T/C [6] was 65.1%. It also gave a viability, T/C [7] of 84.1%, a viability, T/C [8] of 76.4% and a viability, T/C [9] of 87.8%. It also gave a viability, T/C [10] of 80.5%, a viability, T/C [11] of 62.3% and a viability, T/C [12] of 60.2%. The viability, T/C [13] was 79.9%, the viability, T/C [14] was 86.5% and the viability, T/C [15] was 73.7%. The viability, T/C [16] was 80.6%, the viability, T/C [17] was 71% and the viability, T/C [18] was 27%. The viability, T/C [19] was 77.5%, the viability, T/C [20] was 51.7% and the viability, T/C [21] was 56%. The viability, T/C [22] was 46.8%, the viability, T/C [23] was 38.7% and the viability, T/C [24] was 16.9%. It also gave a viability, T/C [25] of 28.4%, a viability, T/C [26] of 31.3% and a viability, T/C [27] of 33.6%. For the same compound, the viability, T/C [28] was 18.6%, the viability, T/C [29] was 17.2% and the viability, T/C [30] was 9.14%. For the same compound, the viability, T/C [31] was 7.93%, the viability, T/C [32] was 6.08% and the viability, T/C [33] was 9.7%. It also gave a viability, T/C [34] of 5.56%, a viability, T/C [35] of 8.2% and a viability, T/C [36] of 2.93%.

`CCCS(=O)(=O)Nc1ccc(F)c(C(=O)c2c[nH]c3ncc(-c4ccc(Cl)cc4)cc23)c1F` + COc1c(OCCCN2CCOCC2)ccc2c3n(c(=NC(=O)c4cnc(N)nc4)nc12)CCN3 was tested, and the IC50 (second compound 0.00316 µM) was 5000 nM, the IC50 (second compound 0.01 µM) was 5780 nM and the IC50 (second compound 0.0316 µM) was 5030 nM. For the same compound, the IC50 (second compound 0.1 µM) was 3410 nM, the IC50 (second compound 0.316 µM) was under 31.6 nM and the IC50 (second compound 1 µM) was under 31.6 nM. For the same compound, the viability, T/C [5] was 84%, the viability, T/C [6] was 87.8% and the viability, T/C (second compound 0.00316 µM, first compound 0.316 µM) was 101%. It also gave a viability, T/C (second compound 0.00316 µM, first compound 1 µM) of 94.1%, a viability, T/C (second compound 0.00316 µM, first compound 3.16 µM) of 79.6% and a viability, T/C (second compound 0.00316 µM, first compound 10 µM) of 5.08%. For the same compound, the viability, T/C [11] was 88.4%, the viability, T/C [12] was 93.8% and the viability, T/C (second compound 0.01 µM, first compound 0.316 µM) was 88.9%. It also gave a viability, T/C (second compound 0.01 µM, first compound 1 µM) of 83%, a viability, T/C (second compound 0.01 µM, first compound 3.16 µM) of 90.1% and a viability, T/C (second compound 0.01 µM, first compound 10 µM) of 14.7%. For the same compound, the viability, T/C [17] was 89.7%, the viability, T/C [18] was 78.3% and the viability, T/C (second compound 0.0316 µM, first compound 0.316 µM) was 84.2%. For the same compound, the viability, T/C (second compound 0.0316 µM, first compound 1 µM) was 74.5%, the viability, T/C (second compound 0.0316 µM, first compound 3.16 µM) was 77.6% and the viability, T/C (second compound 0.0316 µM, first compound 10 µM) was 9.06%. It also gave a viability, T/C [23] of 50.2%, a viability, T/C [24] of 56% and a viability, T/C (second compound 0.1 µM, first compound 0.316 µM) of 54.5%. For the same compound, the viability, T/C (second compound 0.1 µM, first compound 1 µM) was 51.5%, the viability, T/C (second compound 0.1 µM, first compound 3.16 µM) was 52.7% and the viability, T/C (second compound 0.1 µM, first compound 10 µM) was 12.5%. For the same compound, the viability, T/C [29] was 33.7%, the viability, T/C [30] was 35.8% and the viability, T/C (second compound 0.316 µM, first compound 0.316 µM) was 38.2%. For the same compound, the viability, T/C (second compound 0.316 µM, first compound 1 µM) was 27.2%, the viability, T/C (second compound 0.316 µM, first compound 3.16 µM) was 23.6% and the viability, T/C (second compound 0.316 µM, first compound 10 µM) was 2.75%. For the same compound, the viability, T/C [35] was 10.5%, the viability, T/C [36] was 9.36% and the viability, T/C (second compound 1 µM, first compound 0.316 µM) was 6.83%. The viability, T/C (second compound 1 µM, first compound 1 µM) was 18.9%, the viability, T/C (second compound 1 µM, first compound 3.16 µM) was 8.57% and the viability, T/C (second compound 1 µM, first compound 10 µM) was 1.66%.
